By IC50 is commonly meant the concentration that inhibits the measured activity by half.

The subject of data set [1] is pilocarpine-induced saliva secretion. The experiment in a line: Pilocarpine-induced salivation in rats. Particulars: for Inhibition rate (%): 10 mg/kg intragastric, pilocarpine 1 mg/kg i.p. 15 minutes later, saliva collected 10 minutes; for saliva secretion compared with the model group: 10 mg/kg intragastric administration.
Method: Rats in each group were given corresponding drugs by intragastric administration. 15 minutes later, pilocarpine (1 mg/kg, dissolved in physiological saline) was injected intraperitoneally to induce saliva secretion. The rat was immediately anesthetized by intraperitoneal injection of 10% chloral hydrate. After the rat was anesthetized, the residual saliva in the oral cavity was taken out with a cotton ball in that the weighed cotton ball (M1) was placed in the oral cavity (two under the tongue and one for each on both sides). The cotton ball was taken out 10 minutes later and the weight of the cotton ball (M2) was immediately measured.
Inhibition rate=Saliva secretion in drug administration group/Saliva secretion in model group×100%
In data set [2] the target is hERG potassium channel (Homo sapiens, UniProt Q12809). The experiment in a line: hERG potassium channel activity test. It counts as biochemical. For orientation: The hERG channel carries a current that helps repolarise heart muscle cells.
The subject of data set [3] is histamine-induced skin vascular permeability. The experiment in a line: Inhibitory effect on histamine-induced vascular permeability in mice. Type of data set: in vivo, ICR mice. Particulars: Mus musculus, po; 5 mg/kg intragastric 1 hour before modeling; histamine phosphate 1 ug/0.1 mL; Evans Blue absorbance at 610 nm; read-out: Inhibition rate (%). As for the experimental part:
Intragastric administration was performed 1 hour before modeling. The model group was given the corresponding solvent. […] 10% sodium sulfide was used to depilate the back of mice (3 cm×3 cm). The mice were injected 1 ug/0.1 mL of histamine phosphate physiological saline solution into the depilation site one hour after the administration, and injected 0.25% Evans Blue solution 4 ml/kg from the tail vein immediately after the injection. After 30 minutes, the mice were dislocated and sacrificed. The blue-stained part of the skin was removed and perforated (diameter 15 mm), cut into pieces and soaked in 1 ml of acetone-saline (7:3) solution. After 24 h, it was centrifuged (3000 r/min, 10 min) to take the supernatant. The absorbance of the sample was measured with an ultraviolet spectrophotometer at a wavelength of 610 nm and a blank zero calibration with acetone-physiological saline solution.

Chain of hERG potassium channel (Q12809 whole entry): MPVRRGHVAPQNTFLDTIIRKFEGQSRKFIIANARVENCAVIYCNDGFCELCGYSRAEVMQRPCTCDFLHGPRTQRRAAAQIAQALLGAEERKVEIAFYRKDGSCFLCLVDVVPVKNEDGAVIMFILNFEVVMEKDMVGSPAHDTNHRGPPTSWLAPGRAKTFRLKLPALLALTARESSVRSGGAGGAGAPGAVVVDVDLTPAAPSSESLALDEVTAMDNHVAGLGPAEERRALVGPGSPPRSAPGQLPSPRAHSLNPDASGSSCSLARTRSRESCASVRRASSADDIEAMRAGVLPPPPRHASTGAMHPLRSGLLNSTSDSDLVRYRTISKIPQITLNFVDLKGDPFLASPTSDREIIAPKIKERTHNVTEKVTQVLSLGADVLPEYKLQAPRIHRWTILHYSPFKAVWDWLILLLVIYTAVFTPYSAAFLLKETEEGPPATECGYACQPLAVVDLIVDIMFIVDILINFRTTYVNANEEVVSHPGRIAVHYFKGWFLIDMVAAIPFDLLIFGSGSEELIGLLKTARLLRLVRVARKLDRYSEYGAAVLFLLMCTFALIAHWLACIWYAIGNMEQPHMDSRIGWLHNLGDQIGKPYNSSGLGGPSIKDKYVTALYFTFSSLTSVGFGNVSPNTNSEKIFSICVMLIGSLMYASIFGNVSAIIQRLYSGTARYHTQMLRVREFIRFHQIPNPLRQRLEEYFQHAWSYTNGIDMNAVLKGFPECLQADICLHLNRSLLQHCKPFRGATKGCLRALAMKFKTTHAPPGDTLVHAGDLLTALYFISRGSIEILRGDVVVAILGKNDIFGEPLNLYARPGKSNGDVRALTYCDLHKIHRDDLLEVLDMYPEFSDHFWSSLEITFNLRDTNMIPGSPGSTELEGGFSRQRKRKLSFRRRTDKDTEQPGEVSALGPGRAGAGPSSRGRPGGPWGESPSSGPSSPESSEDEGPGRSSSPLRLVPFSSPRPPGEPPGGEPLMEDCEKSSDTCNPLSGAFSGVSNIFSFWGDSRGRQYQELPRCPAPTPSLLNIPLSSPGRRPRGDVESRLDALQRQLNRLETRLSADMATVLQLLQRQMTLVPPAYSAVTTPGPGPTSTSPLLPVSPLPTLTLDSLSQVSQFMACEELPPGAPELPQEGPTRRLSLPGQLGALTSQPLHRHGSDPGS

With `CC(C)(C(=O)O)c1ccc(CCCN2CCC(=C3c4ccccc4CCc4cc(Cl)ccc43)CC2)cc1` [Example 21, 2-(4-(3-(4-(2-chloro-10,11-dihydro-5H-dibenzo[a,d][7]cycloheptenyl-naphthylene)piperidine-1-yl)propyl)phenyl)-2-methylpropionic acid], in data set [1], the “Inhibition rate (%)” value was 16.54%. This molecule also came in with an IC50 in data set [2] of over 30 µM. Further, the inhibition in vivo at 5 mg/kg in data set [3] worked out at 42.6%.
`CC(C)(C(=O)O)c1ccc(CCCN2CCC(=C3c4ccc(Cl)cc4CCc4cccnc43)CC2)c(OC(F)(F)F)c1` [Example 7, 2-(4-(3-(4-(8-chloro-5,6-dihydro-11H-benzo[5,6]cyclohepta[1,2-b]pyridine-11-enyl)piperidine-1-yl)propyl)-3-(trifluoromethoxy)phenyl)-2-methylpropionic acid]: in data set [1], the “Inhibition rate (%)” value is 4.65%. Further, in data set [2], the IC50 was over 30 µM. The inhibition in vivo at 5 mg/kg in data set [3] is 42.6%.
`CC(C)(C(=O)O)c1ccc(C(O)CCCN2CCC(=C3c4ccc(Cl)cc4CCc4cccnc43)CC2)cc1` (centres unmarked) [Example 29]: the “Inhibition rate (%)” value in data set [1] is listed as 11.28%. The 50% inhibitory concentration (IC50) in data set [2] is over 30 µM. In addition, the inhibition in vivo at 5 mg/kg in data set [3] was found to be 64.3%.
The like results for `CC(C)(C(=O)O)c1ccc(CCCN2CCC(=C3c4ccc(Cl)cc4CCc4cccnc43)CC2)c(C#N)c1` [Example 4, 2-(4-(3-(4-(8-chloro-5,6-dihydro-11H-benzo[5,6]cyclohepta[1,2-b]pyridine-11-ylidene)piperidine-1-yl)propyl)-3-cyano)-2-methylpropionic acid] were, in that order, 8.72%, over 30 µM and 65.4%.
The like results for `CC(C)(C(=O)O)c1ccc(CCCN2CCC(=C3c4ccc(Cl)cc4CCc4cccnc43)CC2)c(F)c1` [Example 8, 2-(4-(3-(4-(8-chloro-5,6-dihydro-11H-benzo[5,6]cyclohepta[1,2-b]pyridine-11-enyl)piperidine-1-yl)propyl)-3-fluorophenyl)-2-methylpropionic acid] were, in that order, 8.23%, over 30 µM and 34.9%.
The like results for `CC(C)(C(=O)O)c1ccc(C#N)c(CCCN2CCC(=C3c4ccc(Cl)cc4CCc4cccnc43)CC2)c1` [Example 26] were, in that order, 13.28%, over 30 µM and 68.2%.
As for `Cc1cc(CCCN2CCC(=C3c4ccc(Cl)cc4CCc4cccnc43)CC2)ccc1C(C)(C)C(=O)O` [Example 11, 2-(4-(3-(4-(8-chloro-5,6-dihydro-11H-benzo[5,6]cyclohepta[1,2-b]pyridine-11-enyl)piperidine-1-yl)propyl)-2-methylphenyl)-2-methylpropionic acid], the “Inhibition rate (%)” value in data set [1] stood at 5.20%. The molecule also showed an IC50 in data set [2] of over 30 µM. Also, the inhibition in vivo at 5 mg/kg in data set [3] was 36.9%.
The like results for `CC(C)(C(=O)O)c1ccc(CCCN2CCC(=C3c4ccc(Cl)cc4CCc4cccnc43)CC2)cc1` [Example 3, 2-(4-(3-(4-(8-chloro-5,6-dihydro-11H-benzo[5,6]cyclohept[1,2-b]pyridine-11-enyl)piperidine-1-yl)propyl)phenyl)-2-methylpropionic acid] were, in that order, 7.02%, over 30 µM and 41.7%.
With `Cc1nc(C)c(CN2CCC(=C3c4ccc(Cl)cc4CCc4cccnc43)CC2)nc1C` [Compound LP-2, reference compound], in data set [1], the “saliva secretion compared with the model group” value is “decreased” and the “Inhibition rate (%)” value turned out to be 98.40%. The half-maximal inhibitory concentration (IC50) in data set [2] was 4.03 µM. For the same molecule, the inhibition in vivo at 5 mg/kg in data set [3] was 54.1%.
The like results for `Cc1ccc2c(c1)CCc1cccnc1C2=C1CCN(CCCc2ccc(C(=O)O)cc2)CC1` [Compound 1, reference compound] were, in that order, “decreased”, 84.30%, 2.03 µM and 36.1%.

The record behind these values is patent US20230140276A1, “TRICYCLIC COMPOUNDS, PREPARATION METHOD AND MEDICAL USE THEREOF” (HEFEI INSTITUTE OF PHARMACEUTICAL INDUSTRY CO., LTD., priority 2020, published 2023).
